Laboratory results as given in patent publication US20130005568A1, “SAFENED HERBICIDAL MIXTURES” (E.I. DU PONT DE NEMOURS AND COMPANY, priority 2011, published 2013).

Columns and labels:
[1] = system: Bermudagrass; experiment: Test G: turf grass and weed postemergence plant response rating; assay type: in vivo, Cynodon dactylon (L.) Pers.; details: Bermudagrass, postemergence, greenhouse, three weeks, 0-100 scale
Description: (§1) For all of the following biological tests, plant response ratings were based on a 0-100 scale where zero is growth equivalent to that of untreated plants (no plant response) and 100 represents no additional growth occurring after herbicide treatment.
Plants of the turf grass species: zoysia (Zoysia japonica Steud.), bermudagrass (Cynodon dactylon (L.) Pers.), tall fescue (Festuca arundinacea Shreib.), creeping bentgrass (Agrostis stoonoifera L.), perennial ryegrass (Lolium perenne L.) and hard fescue (Festuca species) were grown under greenhouse conditions for four months. Plants were clipped as needed to plant heights of 5-10 cm. […] Herbicide mixtures were formulated, dissolved/dispersed in water containing 0.25% non-ionic surfactant, and sprayed postemergence to these turf grasses and weeds. Treated plants were grown under greenhouse conditions for three weeks before visual evaluations of plant responses were recorded.

[2] = system: Annual bluegrass; experiment: as above; assay type: in vivo, Poa annua L.; details: Annual bluegrass, postemergence, greenhouse, three weeks, 0-100 scale
Description: as §1
(§2) Plants of the turf grass species: zoysia (Zoysia japonica Steud.), bermudagrass (Cynodon dactylon (L.) Pers.), tall fescue (Festuca arundinacea Shreib.), creeping bentgrass (Agrostis stoonoifera L.), perennial ryegrass (Lolium perenne L.) and hard fescue (Festuca species) were grown under greenhouse conditions for four months. Plants were clipped as needed to plant heights of 5-10 cm. Weeds typically found in turf: annual bluegrass (Poa annua L.), common chickweed (Stellaria media (L.) Vill.), large crabgrass (Digitaria sanguinales (L.) Scop.), dandelion (Taraxacum officinale Weber in Wiggers), goosegrass (Eleusine indica (L.) Gaertn.), henbit (Lamium amplexicaule L.), venice mallow (Hibiscus trionium L.) and purple nutsedge (Cyperus rotundus L.) were also grown under greenhouse conditions so that plants were 5-20 cm tall when they were treated. Herbicide mixtures were formulated, dissolved/dispersed in water containing 0.25% non-ionic surfactant, and sprayed postemergence to these turf grasses and weeds. Treated plants were grown under greenhouse conditions for three weeks before visual evaluations of plant responses were recorded.

[3] = system: Chickweed; experiment: as above; assay type: in vivo, Stellaria media (L.) Vill.; details: Chickweed, postemergence, greenhouse, three weeks, 0-100 scale
Description: as §1, §2

[4] = system: Large crabgrass; experiment: as above; assay type: in vivo, Digitaria sanguinales (L.) Scop.; details: Large crabgrass, postemergence, greenhouse, three weeks, 0-100 scale
Description: as §1, §2

[5] = system: Dandelion; experiment: as above; assay type: in vivo, Taraxacum officinale Weber in Wiggers; details: Dandelion, postemergence, greenhouse, three weeks, 0-100 scale
Description: as §1, §2

[6] = system: Goosegrass; experiment: as above; assay type: in vivo, Eleusine indica (L.) Gaertn.; details: Goosegrass, postemergence, greenhouse, three weeks, 0-100 scale
Description: as §1, §2

[7] = system: Henbit; experiment: as above; assay type: in vivo, Lamium amplexicaule L.; details: Henbit, postemergence, greenhouse, three weeks, 0-100 scale
Description: as §1, §2

[8] = system: Venice mallow; experiment: as above; assay type: in vivo, Hibiscus trionium L.; details: Venice mallow, postemergence, greenhouse, three weeks, 0-100 scale
Description: as §1, §2

[9] = system: Purple nutsedge; experiment: as above; assay type: in vivo, Cyperus rotundus L.; details: Purple nutsedge, postemergence, greenhouse, three weeks, 0-100 scale
Description: as §1, §2

[10] = system: Pioneer 39K40 hybrid maize; experiment: Test A: visual plant response rating, postemergence herbicide treatments alone and with Compound 1; assay type: in vivo, Zea mays L. spp. indentata Sturt.; details: in vivo
Protocol: as §1
Pioneer 39K40 hybrid maize used in this test (and also Tests B and C) is particularly sensitive to herbicides that inhibit the acetohydroxy acid synthase enzyme. Herbicide mixtures were dissolved/dispersed in a non-phytotoxic liquid carrier and were sprayed postemergence to Pioneer 39K40 hybrid maize (Zea mays L. spp. indentata Sturt.) in the third collar growth stage (extended leaf height was 50-60 cm). Treated plants were grown under greenhouse conditions for two weeks before visual evaluations of plant responses were recorded.

[11] = herbicide 200 g ai/ha + Compound 1 125 g ai/ha
[12] = herbicide 80 g ai/ha + Compound 1 125 g ai/ha

## Nc1nc(C2CC2)nc(C(=O)[O-])c1Cl.[K+] [Aminocyclopyrachlor-potassium, aminocyclopyrachlor]
[1]; [11]
  Observed Response, Herbicide mixture with Compound 1: 0
[1]; herbicide 200 g ai/ha
  Observed Response, Herbicide alone: 20
[2]; [11]
  Observed Response, Herbicide mixture with Compound 1: 0
[2]; herbicide 200 g ai/ha
  Observed Response, Herbicide alone: 20
[3]; [11]
  Observed Response, Herbicide mixture with Compound 1: 100
[3]; herbicide 200 g ai/ha
  Observed Response, Herbicide alone: 100
[4]; [11]
  Observed Response, Herbicide mixture with Compound 1: 70
[4]; herbicide 200 g ai/ha
  Observed Response, Herbicide alone: 80
[5]; [11]
  Observed Response, Herbicide mixture with Compound 1: 100
[5]; herbicide 200 g ai/ha
  Observed Response, Herbicide alone: 100
[6]; [11]
  Observed Response, Herbicide mixture with Compound 1: 0
[6]; herbicide 200 g ai/ha
  Observed Response, Herbicide alone: 50
[7]; [11]
  Observed Response, Herbicide mixture with Compound 1: 100
[7]; herbicide 200 g ai/ha
  Observed Response, Herbicide alone: 100
[8]; [11]
  Observed Response, Herbicide mixture with Compound 1: 98
[8]; herbicide 200 g ai/ha
  Observed Response, Herbicide alone: 100
[9]; [11]
  Observed Response, Herbicide mixture with Compound 1: 40
[9]; herbicide 200 g ai/ha
  Observed Response, Herbicide alone: 40

## COC(=O)c1ccccc1S(=O)(=O)NC(=O)Nc1nc(C)nc(OC)n1 [Metsulfuron-methyl, metsulfuron-methyl]
[10]
  Observed Response, Herbicide alone: 99
[2]; [12]
  Observed Response, Herbicide mixture with Compound 1: 50
[2]; herbicide 80 g ai/ha
  Observed Response, Herbicide alone: 80
[3]; [12]
  Observed Response, Herbicide mixture with Compound 1: 100
[3]; herbicide 80 g ai/ha
  Observed Response, Herbicide alone: 100
[4]; [12]
  Observed Response, Herbicide mixture with Compound 1: 0
[4]; herbicide 80 g ai/ha
  Observed Response, Herbicide alone: 60
[5]; [12]
  Observed Response, Herbicide mixture with Compound 1: 100
[5]; herbicide 80 g ai/ha
  Observed Response, Herbicide alone: 100
[6]; [12]
  Observed Response, Herbicide mixture with Compound 1: 0
[6]; herbicide 80 g ai/ha
  Observed Response, Herbicide alone: 50
[7]; [12]
  Observed Response, Herbicide mixture with Compound 1: 100
[7]; herbicide 80 g ai/ha
  Observed Response, Herbicide alone: 100
[8]; [12]
  Observed Response, Herbicide mixture with Compound 1: 100
[8]; herbicide 80 g ai/ha
  Observed Response, Herbicide alone: 100
[9]; [12]
  Observed Response, Herbicide mixture with Compound 1: 20
[9]; herbicide 80 g ai/ha
  Observed Response, Herbicide alone: 60
